# Data published in US11148991B2, “5-bromo-2-(alpha-hydroxypentyl)benzoic acid sodium salts in different crystal forms, and preparation method thereof” (priority 2013, dated 2021).
# How the values were obtained:
# [1] = Effect on body weight of rats; assay type: in vivo; settings: for BW: in g (unit assumed)
# [2] = Acute toxicity (LD50), rat; settings: in vivo
# Rat = assay: Sub-acute toxicity, rat
# [3] = Day 6, rats F, ig group 20 mg/kg
# [4] = Day 6, rats F, iv group 12 mg/kg
# [5] = Day 6, rats M, ig group 20 mg/kg
# [6] = Day 6, rats M, iv group 12 mg/kg
# [7] = Day 11, rats F, ig group 20 mg/kg
# [8] = Day 11, rats F, iv group 12 mg/kg
# [9] = Day 11, rats M, ig group 20 mg/kg
# [10] = Day 11, rats M, iv group 12 mg/kg
# [11] = Day 16, rats F, ig group 20 mg/kg
# [12] = Day 16, rats F, iv group 12 mg/kg
# [13] = Day 16, rats M, ig group 20 mg/kg
# [14] = Day 16, rats M, iv group 12 mg/kg
# [15] = Day 21, rats F, ig group 20 mg/kg
# [16] = Day 21, rats F, iv group 12 mg/kg
# [17] = Day 21, rats M, ig group 20 mg/kg
# [18] = Day 21, rats M, iv group 12 mg/kg
# [19] = Day 24, rats F, ig group 20 mg/kg
# [20] = Day 24, rats F, iv group 12 mg/kg
# [21] = Day 24, rats M, ig group 20 mg/kg
# [22] = Day 24, rats M, iv group 12 mg/kg
structure (smiles),measurement,setting,value
"CCCCC(O)c1ccc(Br)cc1C(=O)[O-].[Na+] (stereo not drawn) [BZP (amorphous form), 5-bromo-2-(α-hydroxypentyl)benzoic acid sodium salt]",BW,"[1]; Day 1, rats F, ig group 20 mg/kg",179 ± 12
same,BW,"[1]; Day 1, rats F, iv group 12 mg/kg",182 ± 13
same,BW,"[1]; Day 1, rats M, ig group 20 mg/kg",183 ± 8
same,BW,"[1]; Day 1, rats M, iv group 12 mg/kg",179 ± 13
same,ΔW (%),[1]; [3],7 ± 4%
same,BW,[1]; [3],192 ± 16
same,ΔW (%),[1]; [4],7 ± 2%
same,BW,[1]; [4],195 ± 12
same,ΔW (%),[1]; [5],15 ± 3%
same,BW,[1]; [5],210 ± 8
same,ΔW (%),[1]; [6],14 ± 6%
same,BW,[1]; [6],204 ± 7
same,ΔW (%),[1]; [7],7 ± 2 %
same,BW,[1]; [7],203 ± 14
same,ΔW (%),[1]; [8],3 ± 2 %
same,BW,[1]; [8],200 ± 15
same,ΔW (%),[1]; [9],17 ± 5%
same,BW,[1]; [9],245 ± 12
same,ΔW (%),[1]; [10],14 ± 2 %
same,BW,[1]; [10],238 ± 6
same,ΔW (%),[1]; [11],25 ± 4 %
same,BW,[1]; [11],224 ± 11
same,ΔW (%),[1]; [12],21 ± 7 %
same,BW,[1]; [12],212 ± 14
same,ΔW (%),[1]; [13],53 ± 14%
same,BW,[1]; [13],280 ± 18
same,ΔW (%),[1]; [14],31 ± 10%
same,BW,[1]; [14],270 ± 6
same,ΔW (%),[1]; [15],29 ± 6 %
same,BW,[1]; [15],230 ± 15
same,ΔW (%),[1]; [16],23 ± 6 %
same,BW,[1]; [16],223 ± 20
same,ΔW (%),[1]; [17],75 ± 14%
same,BW,[1]; [17],320 ± 18
same,ΔW (%),[1]; [18],66 ± 15 %
same,BW,[1]; [18],296 ± 8
same,ΔW (%),[1]; [19],31 ± 5 %
same,BW,[1]; [19],235 ± 12
same,ΔW (%),[1]; [20],21 ± 6 %
same,BW,[1]; [20],221 ± 19
same,ΔW (%),[1]; [21],84 ± 14%
same,BW,[1]; [21],337 ± 18
same,ΔW (%),[1]; [22],71 ± 16 %
same,BW,[1]; [22],304 ± 10
same,LD50,[2]; iv,246 mg/kg
same,LD50,[2]; po,726 mg/kg
same,Sub-acute,Rat; ig,>20 mg/kg
same,Sub-acute,Rat; iv,>12 mg/kg
